Assay results published in patent US20220057383A1, “USE OF BIOMARKERS TO EVALUATE THE EFFICACY OF A COMPOSITION IN REDUCING THE EFFECTS OF CANCER THERAPEUTICS ON SKIN” (Johnson & Johnson Consumer Inc., priority 2019, published 2022).
Where two headings read alike, the source gives them in different places.

What was measured:
[1] = test system: RHE keratinocytes; assay: Transcriptomic analysis (gene expression profiling) of RHE keratinocytes treated with afatinib; type: cell-based, human; conditions: 100 nM afatinib; for number of genes down-regulated compared to control / number of genes up-regulated compared to control: cut off 50%
[2] = test system: Reconstructed Human Epidermis (RHE) tissues
[3] = human, in vivo; cited from earlier work
[4] = 100 nM afatinib vs control, cut off 1.2-fold, overall

## Afatinib
[1]
  expression of genes related to inflammation (Th1 response): did not show any increase
  genes involved in innate immunity (S100 family, SPRR2B, DEFB1): negatively regulated
[1]; 6 h
  number of genes down-regulated compared to control: 170
  number of genes up-regulated compared to control: 201
[1]; 24 h
  expression of KRT2, KRT9, KRT13, KRT15 and Late Cornified Envelop genes (LCE2A, LCE1B, LCE2B, LCE1C, LCE2D): increase
  expression of metallothionein panel (MT1E, MT1L, MT1H L1, MT1X, MT1B, MT1A): decreased
  number of genes down-regulated compared to control: 335
  number of genes up-regulated compared to control: 281
[1]; 24 h and 72 h
  expression of CYP (CYP4B1, CYP3A7, CYP3A5, CYP2J2, CYP4A11, CYP1A1, CYP4F22): decreased
  expression of CYP (Inc-CYP24A1-1, CYP27A1, CYP4F12): increased
[1]; 72 h
  expression of SIRT4: increased
  expression of antioxidant enzymes PRDX2 and PRDX3: decreased
  expression of metallothionein panel (MT1E, MT1L, MT1H L1, MT1X, MT1B, MT1A): increased
[1]; cluster C2
  genes related to IL4 and IL13 signaling (Th2 response): over representation
[1]; cluster C6
  genes related to the PI3K/AKT pathway: upregulation
[1]; cut-off 50% fold-change, different time points
  number of dysregulated genes: 2,182
[1]; protein phosphorylation assay and gene expression array
  inflammasome response via TLR, NLR and IL1 families: decreased
[2]; 100 nM afatinib
  FOXO3 phosphorylation: decreased
  cellular senescence pathway, enrichment based on change of protein phosphorylation status: significant enrichment
[2]; 100 nM afatinib vs control, cut off 1.2-fold change (more than 20%), all time points
  number of phosphoproteins with changed phosphorylation status: 62
[2]; [4]
  number of proteins with a significant decrease of phosphorylation status: 18
  number of proteins with a significant increase of phosphorylation status: 44
[2]; 100 nM afatinib, 20 min
  number of proteins showing decreased phosphorylation compared to control: 3
  number of proteins showing increased phosphorylation compared to control: 6
[2]; 100 nM afatinib, 24 h
  PI3K-AKT pathway, Set Enrichment Analysis of phosphorylation status: significant enrichment
  number of proteins showing decreased phosphorylation compared to control: 23
  number of proteins showing increased phosphorylation compared to control: 18
  phosphorylation of MEK1 (Phospho-Ser217): not impacted
  phosphorylation of MEK1 (Phospho-Ser221): not impacted
  phosphorylation of Raf1 (Phospho-Ser338): decreased
  phosphorylation of Raf1 (Phospho-Tyr341): not impacted
  phosphorylation of eIF4E (Phospho-Ser209): decreased
[2]; 100 nM afatinib, 72 h
  number of proteins showing decreased phosphorylation compared to control: 6
  number of proteins showing increased phosphorylation compared to control: 6
[3]
  appearance of granulomas versus other EGFRi: more frequent appearance of granulomas
